Test: Pharmacokinetics of released PEGylated protease inhibitor following P.O. administration of prodrugs in rats
Assay type: in vivo, male Sprague-Dawley rats
Set-up: AUCall Mean: concentration or dose not given beside the values; C24 Mean: unit not given here
Settings: rats (n = 4-5)
Experimental: Pharmacokinetic analysis of protease inhibitors described herein was conducted. To evaluate the pharmacokinetics of PEGylated protease inhibitor conjugates with releasable lipophilic attachments, test compounds were administered to male Sprague-Dawley rats.
At various times following test article administration, serial blood samples were collected from indwelling jugular vein catheters and transferred to micro-tubes containing 7.5 μL of 20% w/v K2EDTA as an anticoagulant. Following processing of the blood samples to plasma (10 minutes at 10000 rpm, Centrifuge Model: Kubota 3500), plasma concentrations of the test article or corresponding PEGylated molecule released from the test article was measured using LC-MS/MS methods. Pharmacokinetic parameters were estimated using noncompartmental methods.

[1] = mPEG6-atazanavir in plasma after PO administration of mPEG6-ATV or of the listed prodrug
[2] = mPEG5-atazanavir in plasma after PO administration of mPEG5-ATV or of the listed prodrug
[3] = mPEG3-atazanavir in plasma after PO administration of mPEG3-ATV or of the listed prodrug

SMILES	AUCall Mean [1]	Cmax Mean [1]	MRT last Mean [1]	Tmax Median [1]	AUCall Mean [3]	Cmax Mean [3]	MRT last Mean [3]	Tmax* Median [3]	also measured
COCCOCCOCCOCCOCCOCCOC(=O)NC(C(=O)NC(Cc1ccccc1)C(CN(Cc1ccc(-c2ccccn2)cc1)NC(=O)C(NC(=O)OC)C(C)(C)C)OC(C)=O)C(C)(C)C (stereo not shown) [Acetyl-mPEG6-Atazanavir, O-Acetyl-mPEG6-Atazanavir]	150 ng·h/mL	10.3 ng/mL	13.8 h	6.00 h	–	–	–	–	–
COCCOCCOCCOCCOCCOC(=O)N[C@H](C(=O)N[C@@H](Cc1ccccc1)[C@H](CN(Cc1ccc(-c2ccccn2)cc1)NC(=O)[C@@H](NC(=O)OC)C(C)(C)C)OP(=O)(O)O)C(C)(C)C [mPEG5-ATV-phosphate, mPEG5-atazanavir phosphate]	–	–	–	–	–	–	–	–	AUCall Mean [2]: 23.1 ng·h/mL; Cmax Mean [2]: 1.52 ng/mL; MRT last Mean [2]: 10.9 h; Tmax Median [2]: 7.00 h
CCCCCC(=O)O[C@@H](CN(Cc1ccc(-c2ccccn2)cc1)NC(=O)[C@@H](NC(=O)OC)C(C)(C)C)[C@H](Cc1ccccc1)NC(=O)[C@@H](NC(=O)OCCOCCOCCOC)C(C)(C)C [C5H11CO-mPEG3-ATV, C5H11CO-mPEG3-atazanavir]	–	–	–	–	33.9 ng·h/mL	7.51 ng/mL	2.78 h	2.00 h	–
COCCOCCOCCOCCOCCOCCOC(=O)N[C@H](C(=O)N[C@@H](Cc1ccccc1)[C@H](CN(Cc1ccc(-c2ccccn2)cc1)NC(=O)[C@@H](NC(=O)OC)C(C)(C)C)OC(=O)CNC(=O)[C@@H](N)CC(C)C)C(C)(C)C.Cl [Leu-Gly-mPEG6-ATV, Leu-Gly-mPEG6-Atazanavir Hydrochloride]	294 ng·h/mL	13.7 ng/mL	27.2 h	30.0 h	–	–	–	–	–
CCC(=O)OC(CN(Cc1ccc(-c2ccccn2)cc1)NC(=O)C(NC(=O)OC)C(C)(C)C)C(Cc1ccccc1)NC(=O)C(NC(=O)OCCOCCOCCOC)C(C)(C)C (stereo not shown) [C2H5CO-mPEG3-ATV, mPEG3-Atazanavir Propionate]	–	–	–	–	59.6 ng·h/mL	17.8 ng/mL	2.44 h	0.500 h	–
CCCC(=O)O[C@@H](CN(Cc1ccc(-c2ccccn2)cc1)NC(=O)[C@@H](NC(=O)OC)C(C)(C)C)[C@H](Cc1ccccc1)NC(=O)[C@@H](NC(=O)OCCOCCOCCOC)C(C)(C)C [C3H7CO-mPEG3-ATV, mPEG3-Atazanavir Butyrate]	–	–	–	–	11.4 ng·h/mL	3.08 ng/mL	1.56 h	1.00 h	C24 Mean (concentration at 24 hours, mPEG3-atazanavir in plasma after PO administration of mPEG3-ATV or of the listed prodrug): 0.00

Continued, in another order:

AUCall Mean [1]	Cmax Mean [1]	MRT last Mean [1]	Tmax Median [1]	AUCall Mean [3]	Cmax Mean [3]	MRT last Mean [3]	Tmax* Median [3]	SMILES	also measured
102 ng·h/mL	7.06 ng/mL	21.4 h	3.25 h	–	–	–	–	COCCOCCOCCOCCOCCOCCOC(=O)NC(C(=O)NC(Cc1ccccc1)C(CN(Cc1ccc(-c2ccccn2)cc1)NC(=O)C(NC(=O)OC)C(C)(C)C)OC(=O)COCCOC(=O)C(Cc1ccccc1)NC(=O)C(N)Cc1ccccc1)C(C)(C)C (stereo not shown) [mPEG6-ATV-CME-Phe-Phe, mPEG6-atazanavir-ethoxy-CME-Phe-Phe]	–
418 ng·h/mL	37.2 ng/mL	13.8 h	1.50 h	–	–	–	–	COCCOCCOCCOCCOCCOCCOC(=O)N[C@H](C(=O)N[C@@H](Cc1ccccc1)[C@H](CN(Cc1ccc(-c2ccccn2)cc1)NC(=O)[C@@H](NC(=O)OC)C(C)(C)C)OC(=O)[C@H](Cc1ccccc1)NC(=O)[C@@H](N)CC(C)C)C(C)(C)C.Cl [Leu-Phe-mPEG6-ATV, Leu-Phe-mPEG6-Atazanavir Hydrochloride]	–
–	–	–	–	70.4 ng·h/mL	11.8 ng/mL	4.45 h	0.500 h	COCCOCCOCCOC(=O)NC(C(=O)NC(Cc1ccccc1)C(CN(Cc1ccc(-c2ccccn2)cc1)NC(=O)C(NC(=O)OC)C(C)(C)C)OC(=O)C(N)C(C)C)C(C)(C)C.Cl [mPEG3-ATV-L-valine, mPEG3-Atazanavir-L-valine HCl]	–

— patent publication US20120108501A1, “Protease Inhibitors” (priority 2009, published 2012)
